{"source": "patent US4395969A", "about": "(priority 1981, dated 1983)", "key": {"stickleback": {"system": "stickleback", "experiment": "Deactivation with activated carbon, survival of stickleback", "assay_type": "in vivo", "conditions": "2 mg/l; for Mean survival time, bioassay started 18 hours after chemical was added / Mean survival time, bioassay started when chemical was added: river water, 15 C", "description": "A second lot of 5 fish was added to each aquarium 18 hours after the first lot of 10 fish had died or lost their equilibrium. As the life of the first lot of fish was short, the test water was only slightly conditioned by the dying fish and any error introduced by this procedure was relatively small."}, "longnose sucker": {"system": "longnose sucker", "experiment": "Exploratory bioassay, longnose sucker", "assay_type": "in vivo, C. catastomus", "conditions": "less than 24 h; 15 C; 47 to 61 mm", "description": "(§1) Cursory bioassays were made with small numbers of other fishes and a crayfish (Pacifasticus klamathensis) to check on the universal selectivity of the toxicants. The fishes included Arctic grayling (Thymallus arcticus), longnose sucker (C. catastomus), largescale sucker, (C. macrocheilus), and spotted sucker (Minytrema melanops).\nA series of 24-hour bioassays was made with the longnose sucker (1 fish per aquarium) at a concentration range of 0.1 mg/l to 4.5 mg/l of 2, 2-dichlorovinyl diethyl phosphate. The chemical killed the longnose sucker (47 to 61 mm) at a concentration of 0.2 mg/l and higher in less than 24 hours at 15 C.\n(§2) Three longnose suckers (about 125 mm) and three Arctic grayling (about 125 mm) were exposed to 10 μg/l of 2, 2, 2, 1-tetrachloroethyl diethyl phosphate. The suckers died between 14 and 22 hours at 13 C. The grayling were not affected in 48-hour biassays."}, "spotted sucker": {"system": "spotted sucker", "experiment": "Exploratory bioassay, spotted sucker", "assay_type": "in vivo, Minytrema melanops", "conditions": "less than 24 h; 15 C; 31 to 38 mm", "description": "as §1\nA series of five 24-hour biassays was made with the spotted sucker (2 fish per aquarium) at a concentration range of 1 mg/l to 5 mg/l of 2, 2-dichlorovinyl diethyl phosphate. The chemical killed all of the spotted suckers (31 to 38 mm) at 1 mg/l in less than 24 hours at 15 C."}, "brown bullhead catfish": {"system": "brown bullhead catfish", "experiment": "Bioassay, brown bullhead catfish", "assay_type": "in vivo, Ictalurus nebulosus", "conditions": "for mortality: 96 h, 140-185 mm; for mortality / time in which all bullhead catfish died: artesian well water, 10 C; for time in which all bullhead catfish died: fry 28-40 mm; for selectivity to bullhead catfish: in vivo", "description": "Bioassays (10 fish per concentration) were made with brown bullhead catfish fry (28-40 mm) at concentrations of 0, 2, and 4 mg/l of 2, 2-dichlorovinyldiethyl phosphate in artesian well water (load, 0.5 g/l). All the Bullhead catfish died in 12 hours at 2 mg/l and in 6 hours at 4 mg/l of the chemical at 10 C.\nA second series of bioassays (10 fish per concentration) was made with larger bullhead catfish (140-185 mm) at 0.6 and 1.0 mg/l concentrations of 2, 2-dichlorovinyl diethyl phosphate in artesian well water (load, 1.0 g/l) at 10 C. In 96 hours 50% mortality occurred at 0.6 mg/l and 100% mortality at 1.0 mg/l."}, "[1]": {"experiment": "Half-life in river water with or without river mud, measured by bioassay with stickleback", "assay_type": "physicochemical", "conditions": "river water with layer of river mud; 15 C", "description": "The rate of deactivation was measured by bioassay with stickleback and the data were analyzed by conventional methods."}, "chinook salmon": {"system": "chinook salmon", "conditions": "chinook salmon, in vivo, 96 h"}, "in vivo": {"experiment": "in vivo", "conditions": "steelhead trout"}, "[2]": {"experiment": "Static bioassay, lethal concentration to kokanee", "assay_type": "in vivo, a land-locked subspecies of sockeye salmon", "conditions": "kokanee, water, 15 C", "description": "(§3) Bioassays utilized water from an artesian well at Moscow, Idaho and from the headwaters of the Palouse River, also in Idaho. The chemical characteristics of the artesian water were analyzed as follows: Total hardness 67-120 mg/l; total dissolved solids, 160-175 mg/l; and pH 7.1. The chemistry of the Palouse River water was analyzed as follows: total hardness 17 mg/l; methyl orange alkalinity 26 mg/l; total dissolved solids, 32 mg/l and pH, 7.0.\n(§4) Fish were acclimated to test temperatures, usually at 5, 7.5, 10, 15 and 20 degrees Celsius (C), at least 60 hours before exposure to toxicants. For fish and crayfish four water baths regulated the temperature of assay aquaria. Each water bath contained a battery of 20 identical 19-liter clear glass containers or 11.4-liter plastic aquaria lined with disposable polyethylene bags and covered with Plexiglass lids to reduce evaporation. For larger fish and large numbers of fish the bioassays were made in two temperature controlled rooms that contained a series of 700-liter circular fiberglass vats and a series of 76- and 91-liter plastic containers.\n(§5) Standard bioassay techniques were used in sorting fish and conducting the tests. Fish were placed in aerated test aquaria overnight to permit fish to recover from stress due to handling and to deprive them of food. The average load varied but most bioassays were conducted with about 1 g of fish per liter of water.\n(§6) Aliquots of organophosphates were dissolved in ethanol and dispensed to the aquaria to provide concentrations suitable for obtaining the LC0 and LC50 of desirable fish and the LC50 and LC100 of target fish. Control fish were conditioned in the same manner as the test fish, but no chemical was added to the control vessels during the assays. After the addition of a chemical, observations were made mainly at 3, 6, 12, 24, 48, 96, and 192 h. The weight and fork length of fish were obtained when fishes were sacrificed.\n(§7) Delineation bioassays determined primarily the LC50 and LC100 of sucker and stickleback and the LC0 and LC50 of salmonids.\n(§8) The statistical LC1, LC50, and LC99 were interpolated and/or extrapolated using probit graph paper to approximate the LC0, LC50, and LC100 when the latter set of values was not closely determined by single concentrations in a series.\n(§9) Threespine stickleback, brook stickleback, bridgelip sucker, white sucker, chinook salmon, coho salmon, sockeye salmon, kokanee, Kamloops trout, cutthroat trout, and brook trout were treated with various concentrations of 2, 2, 2, 1-tetrachloroethyl diethyl phosphate and at various temperatures to determine approximate selectivity and safety indices. The approximate LC50 and LC100 of the target fishes (threespine and brook sticklebacks and bridgelip and white suckers) are tabulated in Table 5. The 96-hour selectivity and safety indices of selected species of salmonids versus the threespine stickleback are tabulated in Table 7."}, "kokanee": {"system": "kokanee", "experiment": "Static bioassay, lethal concentration to kokanee", "assay_type": "in vivo, a land-locked subspecies of sockeye salmon", "conditions": "15 C", "description": "as §3, §4, §5, §6, §7, §8, §9"}, "Arctic grayling": {"system": "Arctic grayling", "experiment": "Exploratory bioassay, Arctic grayling", "assay_type": "in vivo, Thymallus arcticus", "conditions": "10 μg/l; 48 h", "description": "as §1, §2"}, "crayfish": {"system": "crayfish", "experiment": "Long-term static bioassay, crayfish", "conditions": "2 μg/l; one also missing in control"}}, "data": [{"smiles": "CCOP(=O)(OC=C(Cl)Cl)OCC", "note": "[2,2-dichlorovinyl diethyl phosphate]", "values": [{"measurement": "effect of activated carbon on mortality", "setting": "stickleback", "value": "delayed mortality"}, {"measurement": "survival time after 18-hour deactivation period", "setting": "stickleback; 8 and 32 mg/l of carbon", "value": "about tripled"}, {"measurement": "Mean survival time, bioassay started 18 hours after chemical was added", "setting": "stickleback; activated carbon 0 mg/l", "value": 9.5, "unit": "h"}, {"measurement": "Mean survival time, bioassay started when chemical was added", "setting": "stickleback; activated carbon 0 mg/l", "value": 7.5, "unit": "h"}, {"measurement": "Mean survival time, bioassay started 18 hours after chemical was added", "setting": "stickleback; activated carbon 4 mg/l", "value": 8.0, "unit": "h"}, {"measurement": "Mean survival time, bioassay started when chemical was added", "setting": "stickleback; activated carbon 4 mg/l", "value": 9.2, "unit": "h"}, {"measurement": "Mean survival time, bioassay started 18 hours after chemical was added", "setting": "stickleback; activated carbon 8 mg/l", "value": 33.5, "unit": "h"}, {"measurement": "Mean survival time, bioassay started when chemical was added", "setting": "stickleback; activated carbon 8 mg/l", "value": 10.8, "unit": "h"}, {"measurement": "Mean survival time, bioassay started when chemical was added", "setting": "stickleback; activated carbon 16 mg/l", "value": 12.0, "unit": "h"}, {"measurement": "Mean survival time, bioassay started when chemical was added", "setting": "stickleback; activated carbon 32 mg/l", "value": 22.0, "unit": "h"}, {"measurement": "Mean survival time, bioassay started 18 hours after chemical was added", "setting": "stickleback; activated carbon 32 mg/l, 1 fish did not die (observed 11 days)", "value": 95.0, "unit": "h"}, {"measurement": "concentration that killed longnose sucker", "setting": "longnose sucker", "value": "≥ 0.2", "unit": "mg/L"}, {"measurement": "concentration that killed all of the spotted suckers", "setting": "spotted sucker", "value": 1, "unit": "mg/L"}, {"measurement": "mortality", "setting": "brown bullhead catfish; 0.6 mg/l", "value": 50, "unit": "%"}, {"measurement": "mortality", "setting": "brown bullhead catfish; 1.0 mg/l", "value": 100, "unit": "%"}, {"measurement": "time in which all bullhead catfish died", "setting": "brown bullhead catfish; 2 mg/l", "value": 12, "unit": "h"}, {"measurement": "time in which all bullhead catfish died", "setting": "brown bullhead catfish; 4 mg/l", "value": 6, "unit": "h"}, {"measurement": "selectivity to bullhead catfish", "setting": "brown bullhead catfish", "value": "specific for the carp and bullhead catfish"}, {"measurement": "selectivity to bullhead catfish", "setting": "brown bullhead catfish; listed as dichloro-compound", "value": "slightly more selective to bullhead than to stickleback"}, {"measurement": "half-life", "setting": "[1]", "value": 15, "unit": "days"}, {"measurement": "LC50", "setting": "chinook salmon", "value": 3.4, "unit": "µg/mL"}, {"measurement": "LC50 at 96 h", "setting": "in vivo", "value": 7.1, "unit": "µg/mL"}, {"measurement": "LC50 at 192 h", "setting": "in vivo", "value": 2.8, "unit": "µg/mL"}]}, {"smiles": "CCOP(=O)(OCC)OC(Cl)C(Cl)(Cl)Cl", "note": "(stereo not shown) [2,2,2,1-tetrachloroethyl diethyl phosphate]", "values": [{"measurement": "LC50 at 48 h", "setting": "[2]; 48 h", "value": 0.04, "unit": "µg/mL"}, {"measurement": "LC50 at 96 h", "setting": "[2]; 96 h", "value": 0.03, "unit": "µg/mL"}, {"measurement": "LC50 at 192 h", "setting": "[2]; 192 h", "value": 0.027, "unit": "µg/mL"}, {"measurement": "LC0", "setting": "kokanee; 48 h", "value": 30, "unit": "µg/L"}, {"measurement": "LC0", "setting": "kokanee; 96 h", "value": 20, "unit": "µg/L"}, {"measurement": "LC0", "setting": "kokanee; 192 h", "value": 20, "unit": "µg/L"}, {"measurement": "effect on grayling", "setting": "Arctic grayling", "value": "not affected"}, {"measurement": "crayfish missing", "setting": "crayfish", "value": "one"}]}]}
